ChEMBL document CHEMBL5728681, “Macrocyclic compounds as TRK kinase inhibitors and uses thereof” (2021)

Target: High affinity nerve growth factor receptor (Homo sapiens, UniProt P04629)
Assay: HotSpot Assay: The HotSpot assay platform was used to measure kinase/inhibitor interactions as described in Anastassiadis et al., Nat Biotechnol. 29:1039-45, 2011. In brief, for each reaction, kinase and substrate were mixed in a buffer containing 20 mM HEPES (pH 7.5), 10 mM MgCl2, 1 mM EGTA, 0.02% Brij35, 0.02 mg/mL BSA, 0.1 mM Na3VO4, 2 mM DTT, and 1% DMSO. Compounds were then added to each reaction mixture. After a 20-min incubation, ATP (Sigma-Aldrich) and [γ-33P] ATP (PerkinElmer) were added at a final total concentration of 100 μM. Reactions were carried out at room temperature for 2 h and spotted onto P81 ion exchange cellulose chromatography paper (Whatman). Filter paper was washed in 0.75% phosphoric acid to remove unincorporated ATP. The percent remaining kinase activity relative to a vehicle-containing (DMSO) kinase reaction was calculated for each kinase/inhibitor pair.

Sequence of High affinity nerve growth factor receptor (P04629 whole entry): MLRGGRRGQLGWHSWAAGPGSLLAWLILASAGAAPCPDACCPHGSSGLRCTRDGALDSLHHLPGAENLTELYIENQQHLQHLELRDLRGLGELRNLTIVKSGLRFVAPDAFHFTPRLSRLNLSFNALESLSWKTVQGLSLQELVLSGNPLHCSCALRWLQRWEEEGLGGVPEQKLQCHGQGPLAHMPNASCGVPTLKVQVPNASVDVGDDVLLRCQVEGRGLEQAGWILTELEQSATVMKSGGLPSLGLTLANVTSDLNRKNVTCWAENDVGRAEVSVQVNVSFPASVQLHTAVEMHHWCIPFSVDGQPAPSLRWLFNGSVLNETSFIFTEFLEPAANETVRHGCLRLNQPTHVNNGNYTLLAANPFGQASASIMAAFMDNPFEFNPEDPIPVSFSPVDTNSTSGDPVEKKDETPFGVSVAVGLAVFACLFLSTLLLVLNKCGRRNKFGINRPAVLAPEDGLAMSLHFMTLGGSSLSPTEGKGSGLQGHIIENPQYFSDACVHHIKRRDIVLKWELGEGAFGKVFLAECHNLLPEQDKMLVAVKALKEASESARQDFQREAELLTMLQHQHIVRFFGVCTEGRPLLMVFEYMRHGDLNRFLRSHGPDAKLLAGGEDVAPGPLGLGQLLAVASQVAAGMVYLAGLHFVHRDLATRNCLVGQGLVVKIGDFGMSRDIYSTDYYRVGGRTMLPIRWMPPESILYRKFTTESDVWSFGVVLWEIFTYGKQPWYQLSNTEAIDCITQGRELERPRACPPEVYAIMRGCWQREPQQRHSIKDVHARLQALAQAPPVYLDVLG

IC50: < 100 nM
Structure (SMILES): C=C1c2ncc(F)cc2[C@H]2CCCN2c2ccn3ncc(c3n2)C(=O)N[C@@H]1C
